Results from patent EP0598515A1, “Method for herbicidal activity-enhancing, activity-enhanced herbicidal composition and activity-enhancing composition” (ISHIHARA SANGYO KAISHA LTD., priority 1992, dated 1994).
Values joined by “and” are separate entries in the source; they are usually repeats but may differ in a detail not shown here. Identical values can stand only once. Like-named read-outs stand apart in the source and are kept apart here.

Assays:
Type in all cases: in vivo
[1] = system: common cocklebur (Xanthium strumarium L.); experiment: Test Example 9: pot test, Example 8 suspension concentrate with Frigate; conditions: 22 days after treatment; for inhibition at 40 g/ha: Compound A 40 g/ha
Procedure: (§1) Velvetleaf (Abutilon theophrasti MEDIC.) and common cocklebur (Xanthium strumarium L.) seeds were sown in 1/1,000,000-hectare pots filled with upland soil and arranged in a duplicate system. When the velvetleaf plants and common cocklebur plants grew to a 2.1- and 2.3-leaf stage, respectively, the oil-based suspension concentrate obtained in Example 8 was diluted with 500 liters/hectare of water containing a predetermined amount of Frigate and was applied foliarly to the plants with a small spray gun.
(§2) Twenty two days after treatment, the growth inhibition of plants was evaluated with visual observation in the same manner as in Test Example 1 and are shown in Table 9.

[2] = system: Velvetleaf (Abutilon theophrasti MEDIC.); experiment: as above; conditions: 22 days after treatment; for inhibition at 20 g/ha: Compound A 20 g/ha; for inhibition at 40 g/ha: Compound A 40 g/ha
Procedure: as §1, §2

[3] = system: Crabgrass (Digitaria sanguinalis L.); experiment: Test Example 13: field plot test, growth inhibition; conditions: 648 h, Example 8 suspension concentrate, 27 days after treatment, field plots, read-out: Growth Inhibition (%) DS; for inhibition at 30 g/ha: Compound A 30 g/ha; for inhibition at 40 g/ha: Compound A 40 g/ha
Description: (§3) In field plots of 4 m² (1 m × 4 m) unit arranged in a duplicate system, seeds of corn, crabgrass (Digitaria sanguinalis L.) common lambsquarters (Chenopodium album L.), slender amaranth (Amaranthus viridis L.), velvetleaf (Abutilon theophrasti MEDIC.) and common cocklebur (Xanthium strumarium L.) were sown and grown. Also, green foxtail (Setaria viridis L.) and barnyardgrass (Echinochloa crus-galli L.) were allowed to grow spontaneously. When the plants grew to certain stages (corn: 4.2 to 6.0-leaf stage, crabgrass: 3.2 to 5.0-leaf stage, common lambsquarters: 3.0 to 6.0-leaf stage, slender amaranth: 2.0 to 5.0-leaf stage, velvetleaf: 1.5 to 4.0-leaf stage, common cocklebur: cotyledonal to 3.5-leaf stage, green foxtail: 3.0 to 5.0-leaf stage and barnyardgrass: 3.0 to 5.0-leaf stage), the oil-based suspension concentrate obtained in Example 8 was diluted with 200 liters/hectare of water containing a predetermined amount of Frigate and was applied foliarly to the plants with a small spray gun.
(§4) Twenty seven days after treatment, the growth inhibition of plants except for corn plants was evaluated with visual observation in the same manner as in Test Example 1 and are shown in Table 13.

[4] = system: slender amaranth (Amaranthus viridis L.); experiment: as above; conditions: 648 h, Example 8 suspension concentrate, 27 days after treatment, field plots, read-out: Growth Inhibition (%) AV; for inhibition at 30 g/ha: Compound A 30 g/ha; for inhibition at 40 g/ha: Compound A 40 g/ha
Description: as §3, §4

[5] = system: common cocklebur (Xanthium strumarium L.); experiment: as above; conditions: Example 8 suspension concentrate, 27 days after treatment, field plots
Description: as §3, §4

[6] = system: Velvetleaf (Abutilon theophrasti MEDIC.); experiment: as above; conditions: 648 h, Example 8 suspension concentrate, 27 days after treatment, field plots; for inhibition at 30 g/ha: Compound A 30 g/ha; for inhibition at 40 g/ha: Compound A 40 g/ha
Description: as §3, §4

[7] = system: barnyardgrass (Echinochloa crus-galli L.); experiment: Test Example 12: field plot test, growth inhibition; conditions: 648 h, Example 8 suspension concentrate, 27 days after treatment, field plots, read-out: Growth Inhibition (%) EC
Description: In field plots of 3 m² (1 m × 3 m) unit arranged in a duplicate system, seeds of corn, crabgrass (Digitaria sanguinalis L.), green foxtail (Setaria viridis L.), common lambsquarters (Chenopodium album L.), slender amaranth (Amaranthus virdis L.) and velvetleaf (Abutilon theophrasti MEDIC.) were sown and grown. Also, barnyardgrass (Echinochloa crus-galli L.), henbit (Lamiun amplexlcaule L.), pale smartweed (Polygonum lapathifolium L.) and threeseeded copperleaf (Acalypha australis L.) were allowed to grow spontaneously. When the plants grew to certain stages (corn: 6.1 to 6.5-leaf stage, crabgrass: 2.0 to 4.5-leaf stage, green foxtail: 3.0 to 4.5-leaf stage, common lambsquarters: 4.0 to 8.0-leaf stage, slender amaranth: 1.0 to 4.0-leaf stage, velvetleaf: 2.0 to 3.5-leaf stage, barnyardgrass: 3.0 to 4.5-leaf stage, henbit: 2.0 to 5.0 cm, pale smartweed: 3.0 to 5.0-leaf stage and threeseeded copperleaf: 2.0 to 4.0-leaf stage), the oil-based suspension concentrate obtained in Example 8 was diluted with 200 liters/hectare of water containing a predetermined amount of Frigate and was applied foliarly to the plants with a small spray gun.
Twenty seven days after treatment, the growth inhibition of plants except for corn plants was evaluated with visual observation in the same manner as in Test Example 1 and are shown in Table 12.

[8] = Frigate 0.25 % by volume, Compound A 10 g/ha, duplicate
[9] = Abutilon theophrasti, 528 h, Frigate 0.125 % by volume, duplicate, read-out: Growth Inhibition (%) Velvetleaf
[10] = Abutilon theophrasti, 528 h, Frigate 0.25 % by volume, duplicate, read-out: Growth Inhibition (%) Velvetleaf
[11] = Abutilon theophrasti, 528 h, Frigate: No addition, duplicate, read-out: Growth Inhibition (%) Velvetleaf
[12] = Frigate 0.2 % by volume, Compound A 20 g/ha
[13] = Frigate: No addition, Compound A 50 g/ha
[14] = Frigate 0.2 % by volume, Compound A 40 g/ha

For `COc1cc(OC)nc(NC(=O)NS(=O)(=O)c2ncccc2C(=O)N(C)C)n1` [Compound A, N-[(4,6-dimethoxypyrimidin-2-yl)aminocarbonyl]-3-dimethylaminocarbonyl-2-pyridinesulfonamide], the “Growth Inhibition (%) Common Cocklebur” value [1, 8] was 25%, the “Growth Inhibition (%) Common Cocklebur” value ([1]; Frigate: No addition, Compound A 20 g/ha, duplicate) was 40% and the inhibition at 10 g/ha ([1]; Xanthium strumarium, 528 h, Frigate 0.125 % by volume, Compound A 10 g/ha, duplicate, read-out: Growth Inhibition (%) Common Cocklebur) was 35%. The inhibition at 20 g/ha ([1]; Xanthium strumarium, 528 h, Frigate 0.125 % by volume, Compound A 20 g/ha, duplicate, read-out: Growth Inhibition (%) Common Cocklebur) was 80%, the inhibition at 40 g/ha ([1]; Xanthium strumarium, 528 h, Frigate 0.125 % by volume, duplicate, read-out: Growth Inhibition (%) Common Cocklebur) was 100% and the inhibition at 10 g/ha ([1]; Xanthium strumarium, 528 h, Frigate 0.25 % by volume, Compound A 10 g/ha, duplicate, read-out: Growth Inhibition (%) Common Cocklebur) was 30%. It also gave an inhibition at 20 g/ha ([1]; Xanthium strumarium, 528 h, Frigate 0.25 % by volume, Compound A 20 g/ha, duplicate, read-out: Growth Inhibition (%) Common Cocklebur) of 95%, an inhibition at 40 g/ha ([1]; Xanthium strumarium, 528 h, Frigate 0.25 % by volume, duplicate, read-out: Growth Inhibition (%) Common Cocklebur) of 100% and an inhibition at 10 g/ha ([1]; Xanthium strumarium, 528 h, Frigate 0.5 % by volume, Compound A 10 g/ha, duplicate, read-out: Growth Inhibition (%) Common Cocklebur) of 60%. It also gave an inhibition at 20 g/ha ([1]; Xanthium strumarium, 528 h, Frigate 0.5 % by volume, Compound A 20 g/ha, duplicate, read-out: Growth Inhibition (%) Common Cocklebur) of 98%, an inhibition at 40 g/ha ([1]; Xanthium strumarium, 528 h, Frigate 0.5 % by volume, read-out: Growth Inhibition (%) Common Cocklebur) of 100% and an inhibition at 40 g/ha ([1]; Xanthium strumarium, 528 h, Frigate: No addition, duplicate, read-out: Growth Inhibition (%) Common Cocklebur) of 85%. The inhibition at 50 g/ha ([1]; Xanthium strumarium, 528 h, Frigate: No addition, Compound A 50 g/ha, duplicate, read-out: Growth Inhibition (%) Common Cocklebur) was 95%, the inhibition at 60 g/ha ([1]; Xanthium strumarium, 528 h, Frigate: No addition, Compound A 60 g/ha, duplicate, read-out: Growth Inhibition (%) Common Cocklebur) was 98% and the inhibition at 10 g/ha ([2]; Abutilon theophrasti, 528 h, Frigate 0.125 % by volume, Compound A 10 g/ha, duplicate, read-out: Growth Inhibition (%) Velvetleaf) was 30%. For the same molecule, the inhibition at 20 g/ha [2, 9] was 65%, the inhibition at 40 g/ha [2, 9] was 85% and the inhibition at 10 g/ha ([2]; Abutilon theophrasti, 528 h, Frigate 0.25 % by volume, Compound A 10 g/ha, duplicate, read-out: Growth Inhibition (%) Velvetleaf) was 40%. It also gave an inhibition at 20 g/ha [2, 10] of 80%, an inhibition at 40 g/ha [2, 10] of 85% and an inhibition at 10 g/ha ([2]; Abutilon theophrasti, 528 h, Frigate 0.5 % by volume, Compound A 10 g/ha, duplicate, read-out: Growth Inhibition (%) Velvetleaf) of 60%. For the same molecule, the inhibition at 20 g/ha ([2]; Abutilon theophrasti, 528 h, Frigate 0.5 % by volume, duplicate, read-out: Growth Inhibition (%) Velvetleaf) was 80%, the inhibition at 40 g/ha ([2]; Abutilon theophrasti, 528 h, Frigate 0.5 % by volume, read-out: Growth Inhibition (%) Velvetleaf) was 90% and the inhibition at 20 g/ha [2, 11] was 20%. It also gave an inhibition at 40 g/ha [2, 11] of 65%, an inhibition at 50 g/ha ([2]; Abutilon theophrasti, 528 h, Frigate: No addition, Compound A 50 g/ha, duplicate, read-out: Growth Inhibition (%) Velvetleaf) of 75% and an inhibition at 60 g/ha ([2]; Abutilon theophrasti, 528 h, Frigate: No addition, Compound A 60 g/ha, duplicate, read-out: Growth Inhibition (%) Velvetleaf) of 80%. The “Growth Inhibition (%) Velvetleaf” value [2, 8] was 50%, the inhibition at 30 g/ha ([3]; Frigate 0.1 % by volume) was 85% and the inhibition at 40 g/ha ([3]; Frigate 0.1 % by volume) was 95%. For the same molecule, the inhibition at 20 g/ha [3, 12] was 85%, the inhibition at 30 g/ha ([3]; Frigate 0.2 % by volume) was 85% and the inhibition at 40 g/ha ([3]; Frigate 0.2 % by volume) was 90%. For the same molecule, the inhibition at 30 g/ha ([3]; Frigate: No addition) was 75%, the inhibition at 40 g/ha ([3]; Frigate: No addition) was 80% and the inhibition at 50 g/ha [3, 13] was 85%. It also gave an inhibition at 30 g/ha ([4]; Frigate 0.1 % by volume) of 95%, an inhibition at 40 g/ha ([4]; Frigate 0.1 % by volume) of 90% and an inhibition at 20 g/ha [4, 12] of 85%. For the same molecule, the inhibition at 30 g/ha ([4]; Frigate 0.2 % by volume) was 90%, the inhibition at 40 g/ha ([4]; Frigate 0.2 % by volume) was 95% and the inhibition at 30 g/ha ([4]; Frigate: No addition) was 90%. For the same molecule, the inhibition at 40 g/ha ([4]; Frigate: No addition) was 95%, the inhibition at 50 g/ha [4, 13] was 95% and the “Growth Inhibition (%) XS” value [5, 14] was 65%. The “Growth Inhibition (%) XS” value ([5]; Frigate: No addition, Compound A 30 g/ha) was 25% and 50%, the inhibition at 30 g/ha ([5]; Xanthium strumarium, 648 h, Frigate 0.1 % by volume, Compound A 30 g/ha, read-out: Growth Inhibition (%) XS) was 80% and the inhibition at 40 g/ha ([5]; Xanthium strumarium, 648 h, Frigate 0.1 % by volume, Compound A 40 g/ha, read-out: Growth Inhibition (%) XS) was 80%. For the same molecule, the inhibition at 20 g/ha ([5]; Xanthium strumarium, 648 h, Frigate 0.2 % by volume, Compound A 20 g/ha, read-out: Growth Inhibition (%) XS) was 80%, the inhibition at 30 g/ha ([5]; Xanthium strumarium, 648 h, Frigate 0.2 % by volume, Compound A 30 g/ha, read-out: Growth Inhibition (%) XS) was 85% and the inhibition at 40 g/ha ([5]; Xanthium strumarium, 648 h, Frigate: No addition, Compound A 40 g/ha, read-out: Growth Inhibition (%) XS) was 75%. It also gave an inhibition at 50 g/ha ([5]; Xanthium strumarium, 648 h, Frigate: No addition, Compound A 50 g/ha, read-out: Growth Inhibition (%) XS) of 70%, an inhibition at 30 g/ha ([6]; Frigate 0.1 % by volume) of 70% and an inhibition at 40 g/ha ([6]; Frigate 0.1 % by volume) of 70%. The inhibition at 20 g/ha [6, 12] was 55%, the inhibition at 30 g/ha ([6]; Frigate 0.2 % by volume) was 70% and the inhibition at 40 g/ha ([6]; Frigate 0.2 % by volume) was 75%. The inhibition at 30 g/ha ([6]; Frigate: No addition) was 30%, the inhibition at 40 g/ha ([6]; Frigate: No addition) was 55% and the inhibition at 50 g/ha [6, 13] was 70%. It also gave an inhibition at 20 g/ha [7, 12] of 100%, an inhibition at 30 g/ha ([7]; Frigate 0.2 % by volume, Compound A 30 g/ha) of 100% and an inhibition at 40 g/ha [7, 14] of 100%. It also gave an inhibition at 60 g/ha ([7]; Frigate: No addition, Compound A 60 g/ha) of 100%.
